Results published in US5434154A, “Antimigraine 4-pyrimidinyl and pyridinyl derivatives of indol-3yl-alkylpiperazines” (Bristol-Myers Squibb Company, priority 1994, dated 1995).
Counter-ions that a name gives are not always drawn.

Assays:
5-HT1D = target: T1, 5-HT1D (Bos taurus, UniProt F1MGM3); experiment: 5-HT1D binding (displacement of tritiated serotonin); conditions: in vitro, Table 2
T1 construct: methodology such as that described by Heuring and Peroutka, J. Neurosci., 7(3), 1987, 894-903; with only minor modifications; from tissue
T1 sequence (F1MGM3 1-403): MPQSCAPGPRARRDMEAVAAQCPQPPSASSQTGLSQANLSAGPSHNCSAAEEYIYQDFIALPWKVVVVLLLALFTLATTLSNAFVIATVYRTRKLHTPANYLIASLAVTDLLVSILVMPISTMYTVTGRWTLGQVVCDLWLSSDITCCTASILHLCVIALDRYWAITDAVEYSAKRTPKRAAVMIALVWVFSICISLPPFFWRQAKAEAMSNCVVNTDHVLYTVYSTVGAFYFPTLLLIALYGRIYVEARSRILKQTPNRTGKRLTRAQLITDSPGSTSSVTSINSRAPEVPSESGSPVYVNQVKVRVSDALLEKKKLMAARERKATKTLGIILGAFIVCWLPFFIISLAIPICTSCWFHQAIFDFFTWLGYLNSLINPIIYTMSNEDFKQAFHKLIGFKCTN
Method: Determination of 5-HT1D binding properties was accomplished employing methodology such as that described by Heuring and Peroutka, J. Neurosci., 7(3), 1987, 894-903; with only minor modifications. In vitro IC50 (nM) test values were determined for the compounds of this invention employing tritiated serotonin.

migraine = conditions: cited from earlier work
migraine sufferers = conditions: cited from earlier work

Row | Compound | IC50 (5-HT1D) [nM] | also measured
1 | COc1cncnc1N1CCN(CCCc2c[nH]c3ccc(F)cc23)CC1 [Example 64] | 1.5 | 
2 | CN1C[C@H](C(=O)N[C@]2(C)O[C@@]3(O)[C@@H]4CCCN4C(=O)[C@H](Cc4ccccc4)N3C2=O)C=C2c3cccc4[nH]cc(c34)C[C@H]21 [ergotamine] |  | dependence (migraine; extended use): cause dependence with extended use
3 | COc1cncnc1N1CCN(CCCc2c[nH]c3ccc(N(C)S(C)(=O)=O)cc23)CC1C (centres unmarked) [Example 70] | 11 | 
4 | COc1cnccc1N1CCN(CCCc2c[nH]c3ccccc23)CC1 [Example 62, 1-[3-(1H-indol-3-yl)propyl]-4-(3-methoxy-4-pyridinyl)piperazine dihydrochloride] | 10 | 
5 | COc1cncnc1N1CCN(CCCc2c[nH]c3ccc(CC(=O)NCc4ccccc4)cc23)CC1 [Example 84] | 4.6 | 
6 | COc1cncnc1N1CCN(CCCc2c[nH]c3ccc(NS(C)(=O)=O)cc23)CC1C (centres unmarked) [Example 68] | 9.6 | 
7 | CNS(=O)(=O)Cc1ccc2[nH]cc(CCCN3CCN(c4ccncc4OC)CC3)c2c1 [Example 61, 4-(5-Methoxy-4-pyridinyl)-1-[3-[5-[[(methylamino)sulfonyl]methyl]-1H-indol-3-yl]propyl]piperazine hydrochloride] | 1 | 
8 | COc1cncnc1N1CCN(CCCc2c[nH]c3ccc(CS(N)(=O)=O)cc23)CC1 [Example 81] | 7.9 | 
9 | CC[C@@H](CO)NC(=O)[C@@H]1C=C2c3cccc4c3c(cn4C)C[C@H]2N(C)C1 [methysergide] |  | side-effects (migraine; long term usage): severe use-limiting side-effects with long term usage
10 | NCCc1c[nH]c2ccc(O)cc12 [serotonin] |  | effect in treating migraine attacks (migraine sufferers; in vivo): effective in treating migraine attacks; side-effects in migraine use (migraine sufferers; in vivo): restlessness, nausea, faintness, hyperpnea, facial flushing and parasthesias
11 | NCCc1c[nH]c2ccc(O)cc12 [serotonin creatinine sulfate] |  | alleviation of reserpine-induced headache (migraine sufferers; slow I.V. injection): This induced headache can be alleviated
12 | COC(=O)[C@H]1[C@H]2C[C@@H]3c4[nH]c5cc(OC)ccc5c4CCN3C[C@H]2C[C@@H](OC(=O)c2cc(OC)c(OC)c(OC)c2)[C@@H]1OC [reserpine] |  | induction of headache in migraine sufferers (migraine sufferers; in vivo): induces a typical migraine-type headache in migraine sufferers; plasma serotonin (migraine sufferers; intramuscular injection): lowers plasma serotonin
